# Experimental data taken from patent publication US10123540B1, “Disinfectant material” (PEN Inc., priority 2014, dated 2018).
# Assays:
# [1] = tested on: H1N1 Influenza A, Strain A-California; assay: Towelette antiviral test, modified AATCC 100; conditions: towelettes embedded with water based solution at 20 mg/L
# Method: A number of other tests were performed against H1N1 Influenza A, Strain A-California, and Human Corona Virus 229E.
# Human Corona Virus 229E = conditions: 10 minutes
# [2] = tested on: feline calcivirus ATCC VR-782; assay: Antiviral surface test, Modified ASTM E1053, limited to 10 minutes; conditions: 20 mg/L in a water based solution applied to a surface; 10 minutes exposure; non-enveloped virus
# Method: Copper ions (20 mg/L) in a water based solution were applied to a surface with the non-enveloped feline calcivirus ATCC VR-782. […] In our case we wanted to have an idea about the rate of killing and this is why we limited the test to 10 minutes.
Molecule,reduction vs time zero control [1],percent reduction (Human Corona Virus 229E),reduction relative to the control [2]
copper iodide,99.7%,99.99%,–
[Cu+2] [Copper ions],–,–,82.22%
